Experimental data from ChEMBL document CHEMBL1129163, “Nucleosides and nucleotides. 155. synthesis, antitumor effects, and possible enzymatic activation mechanism of 5-phosphatidyl-2-deoxy-2-methylenecytidine (DMDC)” (1996).

What was measured:
Mus musculus [1] = assay: Compound was evaluated for the antitumor activity against i.p.-implanted M5076 sarcoma in four mice for a dose of 0.40 mM/kg/day given intraperitoneally on days 1-5; Toxic; assay type: functional, organism-based
Mus musculus [2] = assay: Compound was evaluated for the antitumor activity against i.p.-implanted L1210 leukemia in mice for a dose of 0.125 mM/kg/day given orally on days 1-5.; assay type: functional
Mus musculus [3] = assay: Compound was evaluated for the antitumor activity against i.p.-implanted M5076 sarcoma by measuring 60 day survivor in four mice a dose of 0.125 mM/kg/day given orally on days 1-5.; assay type: functional
Mus musculus [4] = assay: Compound was evaluated for the antitumor activity against i.p.-implanted M5076 sarcoma in mice for a dose of 0.125 mM/kg/day on days 1-5.; assay type: functional
Mus musculus [5] = assay: Compound was evaluated for the antitumor activity against i.p.-implanted M5076 sarcoma by measuring 60 day survivor in four mice at a dose of 0.40 mM/kg/day given orally on days 1-5.; assay type: functional
Mus musculus [6] = assay: Compound was evaluated for the antitumor activity against i.p.-implanted M5076 sarcoma in mice for a dose of 0.40 mM/kg/day given intraperitoneally on days 1-5.; assay type: functional
Mus musculus [7] = assay: Compound was evaluated for the antitumor activity against i.p.-implanted M5076 sarcoma by measuring 60 day survivor in four mice a dose of 0.40 mM/kg/day given orally on days 1-5.; assay type: functional

C=C1[C@H](n2cc(F)c(N)nc2=O)O[C@H](COP(=O)([O-])OC[C@H](COC(=O)CCCCCCCCCCCCCCC)OC(=O)CCCCCCCCCCCCCCC)[C@H]1O.[Na+]
ILS (Mus musculus [1]): Toxic | ILS (Mus musculus [2]): 96% | Survivors (Mus musculus [3]): 3 | ILS (Mus musculus [4]): >179%

C=C1[C@H](n2ccc(N)nc2=O)O[C@H](COP(=O)([O-])OC[C@@H](COC(=O)CCCCCCCCCCCCCCC)OC(=O)CCCCCCCCCCCCCCC)[C@H]1O.[Na+]
Survivors (Mus musculus [5]): 4 | ILS (Mus musculus [2]): 64% | Survivors (Mus musculus [3]): 1 | ILS (Mus musculus [4]): 121% | ILS (Mus musculus [6]): >179%

C=C1C(n2ccc(N)nc2=O)O[C@H](CO)[C@@H]1O (some centres undefined)
Survivors (Mus musculus [7]): 0 | ILS (Mus musculus [2]): 68% | Survivors (Mus musculus [3]): 0 | ILS (Mus musculus [4]): 44% | ILS (Mus musculus [6]): 116%
